# Data from article PMC10055926.
# Entries after “also recorded” stand apart in the source; their conditions may differ.
# Tested on: SARS-CoV-2 Omicron variant (B.1.1.529-BA.1)
# Format: cell-based
# Details: up to 20 µM; Omicron B.1.1.529-BA.1
smiles,measurement,value
C[C@H](NC(=O)[C@H](Cc1ccc(O)cc1)NC(=O)OCc1ccccc1)C(=O)C=[N+]=[N-],inhibitory activity against SARS-CoV-2 Omicron in HNEC ALI cultures (in words),no inhibitory activity; also recorded: unable to block entry
